In series [1] the test system is HCC-1143 cells (ER-negative breast cancer cell line). In words: LDH release assay, cell survival of HCC-1143 monolayers. The class given is cell-based, human. As to conditions: FIG. 2; raloxifene 1000 nM. On the procedure:
(§1) Cell survival (%) for each cell line is calculated according to a standard lactate dehydrogenase (LDH) release assay, where […] (0% survival) corresponds to cells treated with 50 μg/ml of Mitomycin C and […] (100%) survival corresponds to cells treated only with complete medium.
The cell line was maintained in RPMI-1640 (Sigma) supplemented with 2 mM L-Gln (Sigma), 10 mM HEPES (Sigma), 1 mM Na-Pyr (Sigma), 100 IU Penicillin, 100 μg/ml Streptomycin (Sigma) and, as complete medium, 10% FCS (Sigma).
Cultures of MCF-7, HCC-1143 and OVCAR-3 were harvested at approximately 80% confluency by trypsinisation and after washing once in serum free medium, used to seed Flat bottom 96-well plates (Nunc) with 5×10^3 cells per well in 200 μl of complete medium.
Following 18 hours incubation at 37° C., the test compounds were removed and 200 μl/well of complete medium added to each well. […]
(§2) The detection reagent from the CytoTox 96® Non-Radioactive Cytotoxicity Assay kit (Promega) was prepared as per manufacturer's instruction and 50 μl/well of detection reagent was added to all wells. After 30 minutes incubation in the dark at room temperature, the reaction was stopped by adding 50 μl/well of Stop solution to all wells and the absorbance of each well at 490 nm was established.
Background: Release of lactate dehydrogenase indicates damage to the cell membrane.

The subject of series [2] is OVCAR-3 cells (ovarian ER positive cell line). As to the kind of experiment: LDH release assay, cell survival of OVCAR-3 monolayers. The class given is cell-based, human. Conditions: FIG. 2; raloxifene 1000 nM. On the procedure:
as §1
Finally, the NIH:OVCAR-3 cells (ATTC, catalogue no. HTB-161) was isolated from an ovary adenocarcinoma in a person and it expresses the estrogen receptor. The cell line was maintained in RPMI-1640 (Sigma) supplemented with 2 mM L-Gln (Sigma), 10 mM HEPES (Sigma), 1 mM Na-Pyr (Sigma), 0.01 mg/ml Bovine Insulin (Sigma), 100 IU Penicillin, 100 μg/ml Streptomycin (Sigma) and, as complete medium, 20% FCS (Sigma).
(§3) Cultures of MCF-7, HCC-1143 and OVCAR-3 were harvested at approximately 80% confluency by trypsinisation and after washing once in serum free medium, used to seed Flat bottom 96-well plates (Nunc) with 5×10^3 cells per well in 200 μl of complete medium. […]
as §2

The conditions of series [3]: cited from earlier work.
The test system of series [4] is MCF-7 cells (ER-positive breast cancer cell line). In words: LDH release assay, cell survival of MCF-7 monolayers. Type of series: cell-based, human. Conditions: FIG. 2; saporin 500 nM, raloxifene 1000 nM, alone or as admixture. The procedure: as §1
The MCF-7 cell line (ECACC, catalogue no. 86012803) was isolated from a breast adenocarcinoma in a person and it expresses the estrogen receptor. The cell line was maintained in Minimum Essential Medium (Sigma) supplemented with 2 mM L-Gln (Sigma), 1% Non Essential amino acids (Sigma), 100 IU Penicillin, 100 μg/ml Streptomycin (Sigma) and, as complete medium, 10% Foetal Calf Serum (FCS) (Sigma).
as §3, §2

Series [5] has as its system MCF-7 tumors. As to the kind of experiment: In vivo anti-tumor activity, MCF-7 tumors in nude female mice. Conditions: i.v. retro-orbital, days 36 and 43. On the procedure:
Animals received intravenous treatment via the retro-orbital route on days 36 and 43 post challenge.
Thirty (30) nude female mice (nu/nu), 6-8 weeks old, were challenged subcutaneously with 2×10^7 MCF-7 cells delivered in combination with Matrigel (Becton Dickinson) (200 μl total volume). Weight loss and tumor growth (calculated by taking two perpendicular measurements and applying the formula [Π*((min measurement)/2)^2*(maximum measurement)]) were monitored daily until the end of the study.
Statistical differences were calculated using non-parametric Mann-Whitney assays and considered significant if p<0.05.
Control animals received either PBS or the same doses of raloxine via the same route.
Due to the natural susceptibility of MCF-7 cells to estrogen production, daily tumor volume variation in the nude mice model used follows sinusoidal pattern with a period of approximately 4/5 days (see FIG. 3). The duration of this period correlates with the duration of the oestrus cycle in mice (i.e. 4/5 days). As a result, and in order to facilitate experimental analysis, FIG. 3 represents tumor volume variations for each experimental group both as daily changes and as moving averages (i.e. a trend line) for overlapping 5 day periods (i.e. overlap is 4 days per point).

[6] abbreviates: patients taking raloxifene daily.

In the case of `O=C(c1ccc(OCCN2CCCCC2)cc1)c1c(-c2ccc(O)cc2)sc2cc(O)ccc12` [Raloxifene], in series [1], the “lethal effect on HCC-1143 cells” value is “not against”. Also, in series [2], the “lethal effect on OVCAR-3 cells” value is given as “not against”. In series [3] (clinical trial, vs tamoxifen), the “reducing the incidence of estrogen receptor positive breast cancer” value was “as effective as tamoxifen”. Besides, the “fewer blood clots than women taking tamoxifen daily” value in series [3] (setting [6]) was 29%. Further, the “fewer uterine cancers than women taking tamoxifen daily” value in series [3] (setting [6]) is 36%. The “lethal effect on MCF-7 cells” value in series [4] is reported as “selective significant (p<0.05) effect”. Moreover, the “tumor growth compared to PBS control group” value in series [5] (peak blood concentration 0.1 nM conjugate or 0.1 ng/ml raloxifene) and in series [5] (peak blood concentration 0.2 nM conjugate or 0.2 ng/ml raloxifene) was “did not result in any changes” each time. For the same molecule, in series [5] (peak blood concentration 0.4 nM conjugate or 0.4 ng/ml raloxifene, vs PBS), the “tumor volume / tumor growth” value is “maintenance or slight reduction of tumor size over time”.
With saporin, the “lethal effect on MCF-7 cells” value in series [4] is given as “no significant (p>0.05) lethal effect”.
